Measured values as given in patent US20030086873A1, “Myocardial imaging agent and preparation method thereof” (priority 2001, published 2003).

Assays:
Type in all cases: in vivo
[1] = Biological distribution in the bodies of Kunming mice after caudal vein injection
Protocol: The complexes [^99mTc(CO)3(OH2)3]^+ and [^99mTc(CO)3(MIBI)3]^+ prepared in Example 1 were separately injected in the caudal vein of Kunming mice. The experiment was conducted on three mice within each time period, and the injection's activity was 925 KBq. The radioactivity of individual organs's tissue was measured at 5, 15, 30, and 60 minutes after the injection, and the results are represented by radioactive uptake rate per gram of tissue.
The results of the distribution of [^99mTc(CO)3(OH2)3]^+ in the mice's bodies are included in Tables 2; the results for [^99mTc(CO)3(MIBI)3]^+ are presented in Table 3. The value “% ID/g” is the percentage of the injection's total radioactivity that each gram of tissue accounts for i.e., the radioactive uptake rate per gram of tissue, with ID standing for “injected dose.”

[2] = Dynamic SPECT imaging and biological distribution in dogs after intravenous injection; conditions: for Heart biological distribution / Kidneys biological distribution / Liver biological distribution / Lungs biological distribution: i.v.
Protocol: (§1) Dogs were intravenously injected with [^99mTc(CO)3(MIBI)3]^+ or [^99mTc(MIBI)6][…]at dose of […]. Immediately following injection, dynamic photography for up to 120 min was performed using a Toshiba GCA 7200A two-probe SPECT and a low energy parallel aperture regular collimator. Time—radioactivity curves were also collected for the heart, liver, lungs, and kidneys. Target/non-target radioactivity ratios were calculated, and fall body imaging was performed separately at different times. The biological distributions of the imaging agents in the body were analyzed. Vein blood samples were collected separately at different times, and the dynamics of the blood clearance was analyzed. Flat myocardial imaging was conducted separately at different times, with myocardial tomographic imaging at 120 minutes post injection.

[3] = Blood clearance kinetics in dogs (vein blood samples); conditions: intravenous administration, secondary model
Protocol: as §1

COC(C)(C)CN=[C]=[99Tc+](=[C]=O)(=[C]=O)(=[C]=O)(=[C]=NCC(C)(C)OC)=[C]=NCC(C)(C)OC [[^99mTc(CO)3(MIBI)3]^+]
Target/Non-Target Uptake Ratio Heart/Blood ([1]; 5 Minutes): 20.99 | Target/Non-Target Uptake Ratio Heart/Liver ([1]; 5 Minutes): 1.88 | Target/Non-Target Uptake Ratio Heart/Lungs ([1]; 5 Minutes): 3.51 | Blood radioactive uptake per gram of tissue ([1]; 5 Minutes after injection): 1.03 ± 0.21 % ID/g | Bones radioactive uptake per gram of tissue ([1]; 5 Minutes after injection): 3.72 ± 0.84 % ID/g | Brain radioactive uptake per gram of tissue ([1]; 5 Minutes after injection): 0.18 ± 0.02 % ID/g | Heart radioactive uptake per gram of tissue ([1]; 5 Minutes after injection): 21.62 ± 2.84 % ID/g | Kidneys radioactive uptake per gram of tissue ([1]; 5 Minutes after injection): 57.90 ± 1.80 % ID/g | Liver radioactive uptake per gram of tissue ([1]; 5 Minutes after injection): 11.48 ± 0.88 % ID/g | Lungs radioactive uptake per gram of tissue ([1]; 5 Minutes after injection): 6.16 ± 0.48 % ID/g | Muscles radioactive uptake per gram of tissue ([1]; 5 Minutes after injection): 7.08 ± 0.52 % ID/g | Spleen radioactive uptake per gram of tissue ([1]; 5 Minutes after injection): 6.26 ± 1.29 % ID/g | Target/Non-Target Uptake Ratio Heart/Blood ([1]; 15 Minutes): 64.47 | Target/Non-Target Uptake Ratio Heart/Liver ([1]; 15 Minutes): 2.49 | Target/Non-Target Uptake Ratio Heart/Lungs ([1]; 15 Minutes): 4.98 | Blood radioactive uptake per gram of tissue ([1]; 15 Minutes after injection): 0.32 ± 0.05 % ID/g | Bones radioactive uptake per gram of tissue ([1]; 15 Minutes after injection): 2.10 ± 0.10 % ID/g | Brain radioactive uptake per gram of tissue ([1]; 15 Minutes after injection): 0.18 ± 0.02 % ID/g | Heart radioactive uptake per gram of tissue ([1]; 15 Minutes after injection): 20.63 ± 3.89 % ID/g | Kidneys radioactive uptake per gram of tissue ([1]; 15 Minutes after injection): 33.66 ± 0.42 % ID/g | Liver radioactive uptake per gram of tissue ([1]; 15 Minutes after injection): 8.28 ± 0.90 % ID/g | Lungs radioactive uptake per gram of tissue ([1]; 15 Minutes after injection): 4.14 ± 0.90 % ID/g | Muscles radioactive uptake per gram of tissue ([1]; 15 Minutes after injection): 3.78 ± 0.88 % ID/g | Spleen radioactive uptake per gram of tissue ([1]; 15 Minutes after injection): 3.84 ± 0.90 % ID/g | Target/Non-Target Uptake Ratio Heart/Blood ([1]; 30 Minutes): 86.54 | Target/Non-Target Uptake Ratio Heart/Liver ([1]; 30 Minutes): 3.23 | Target/Non-Target Uptake Ratio Heart/Lungs ([1]; 30 Minutes): 5.34 | Blood radioactive uptake per gram of tissue ([1]; 30 Minutes after injection): 0.24 ± 0.07 % ID/g | Bones radioactive uptake per gram of tissue ([1]; 30 Minutes after injection): 1.94 ± 0.29 % ID/g | Brain radioactive uptake per gram of tissue ([1]; 30 Minutes after injection): 0.12 ± 0.01 % ID/g | Heart radioactive uptake per gram of tissue ([1]; 30 Minutes after injection): 20.77 ± 1.60 % ID/g | Kidneys radioactive uptake per gram of tissue ([1]; 30 Minutes after injection): 23.94 ± 2.11 % ID/g | Liver radioactive uptake per gram of tissue ([1]; 30 Minutes after injection): 6.44 ± 1.03 % ID/g | Lungs radioactive uptake per gram of tissue ([1]; 30 Minutes after injection): 3.89 ± 0.54 % ID/g | Muscles radioactive uptake per gram of tissue ([1]; 30 Minutes after injection): 6.14 ± 0.78 % ID/g | Spleen radioactive uptake per gram of tissue ([1]; 30 Minutes after injection): 2.84 ± 0.41 % ID/g | Target/Non-Target Uptake Ratio Heart/Blood ([1]; 60 Minutes): 149.15 | Target/Non-Target Uptake Ratio Heart/Liver ([1]; 60 Minutes): 4.13 | Target/Non-Target Uptake Ratio Heart/Lungs ([1]; 60 Minutes): 6.06 | Blood radioactive uptake per gram of tissue ([1]; 60 Minutes after injection): 0.13 ± 0.04 % ID/g | Bones radioactive uptake per gram of tissue ([1]; 60 Minutes after injection): 1.42 ± 0.31 % ID/g | Brain radioactive uptake per gram of tissue ([1]; 60 Minutes after injection): 0.08 ± 0.01 % ID/g | Heart radioactive uptake per gram of tissue ([1]; 60 Minutes after injection): 19.39 ± 0.91 % ID/g | Kidneys radioactive uptake per gram of tissue ([1]; 60 Minutes after injection): 11.30 ± 0.73 % ID/g | Liver radioactive uptake per gram of tissue ([1]; 60 Minutes after injection): 4.69 ± 0.34 % ID/g | Lungs radioactive uptake per gram of tissue ([1]; 60 Minutes after injection): 3.20 ± 0.85 % ID/g | Muscles radioactive uptake per gram of tissue ([1]; 60 Minutes after injection): 4.42 ± 0.36 % ID/g | Spleen radioactive uptake per gram of tissue ([1]; 60 Minutes after injection): 1.62 ± 0.32 % ID/g | Concentration in livers ([1]; in words): comparatively low | Specific concentration in tissues / heart ([1]; in words): apparent concentration | heart:blood ratio compared with [^99mTc(MIBI)6]^+ ([1]; in words): comparable | heart:liver ratio compared with [^99mTc(MIBI)6]^+ ([1]; in words): higher | Radioactive retention ([1]; within 60 minutes, in words): good radioactive retention | Target/Non-Target Uptake Ratio Heart/Kidneys ([2]; 2 Minutes): 0.56 ± 0.13 | Target/Non-Target Uptake Ratio Heart/Liver ([2]; 2 Minutes): 1 ± 0.18 | Target/Non-Target Uptake Ratio Heart/Lungs ([2]; 2 Minutes): 2.51 ± 0.25 | Target/Non-Target Uptake Ratio Heart/Kidneys ([2]; 5 Minutes): 0.53 ± 0.12 | Target/Non-Target Uptake Ratio Heart/Liver ([2]; 5 Minutes): 0.98 ± 0.11 | Target/Non-Target Uptake Ratio Heart/Lungs ([2]; 5 Minutes): 2.67 ± 0.27 | Target/Non-Target Uptake Ratio Heart/Kidneys ([2]; 10 Minutes): 0.53 ± 0.1 | Target/Non-Target Uptake Ratio Heart/Liver ([2]; 10 Minutes): 0.92 ± 0.13 | Target/Non-Target Uptake Ratio Heart/Lungs ([2]; 10 Minutes): 2.6 ± 0.26 | Target/Non-Target Uptake Ratio Heart/Kidneys ([2]; 20 Minutes): 0.59 ± 0.1 | Target/Non-Target Uptake Ratio Heart/Liver ([2]; 20 Minutes): 0.97 ± 0.1 | Target/Non-Target Uptake Ratio Heart/Lungs ([2]; 20 Minutes): 2.8 ± 0.44 | Target/Non-Target Uptake Ratio Heart/Kidneys ([2]; 30 Minutes): 0.62 ± 0.15 | Target/Non-Target Uptake Ratio Heart/Liver ([2]; 30 Minutes): 1.02 ± 0.11 | Target/Non-Target Uptake Ratio Heart/Lungs ([2]; 30 Minutes): 2.96 ± 0.43 | Target/Non-Target Uptake Ratio Heart/Kidneys ([2]; 40 Minutes): 0.58 ± 0.08 | Target/Non-Target Uptake Ratio Heart/Liver ([2]; 40 Minutes): 1.06 ± 0.17 | Target/Non-Target Uptake Ratio Heart/Lungs ([2]; 40 Minutes): 3 ± 0.51 | Target/Non-Target Uptake Ratio Heart/Kidneys ([2]; 60 Minutes): 0.6 ± 0.06 | Target/Non-Target Uptake Ratio Heart/Liver ([2]; 60 Minutes): 1.22 ± 0.2 | Target/Non-Target Uptake Ratio Heart/Lungs ([2]; 60 Minutes): 3.05 ± 0.52 | Target/Non-Target Uptake Ratio Heart/Kidneys ([2]; 90 Minutes): 0.6 ± 0.06 | Target/Non-Target Uptake Ratio Heart/Liver ([2]; 90 Minutes): 1.25 ± 0.33 | Target/Non-Target Uptake Ratio Heart/Lungs ([2]; 90 Minutes): 3.1 ± 0.49 | Target/Non-Target Uptake Ratio Heart/Kidneys ([2]; 120 Minutes): 0.63 ± 0.04 | Target/Non-Target Uptake Ratio Heart/Liver ([2]; 120 Minutes): 1.37 ± 0.26 | Target/Non-Target Uptake Ratio Heart/Lungs ([2]; 120 Minutes): 3.09 ± 0.56 | Heart biological distribution ([2]; 10 Minutes): 3.80 ± 0.44 % ID/g | Kidneys biological distribution ([2]; 10 Minutes): 15.33 ± 0.75 % ID/g | Liver biological distribution ([2]; 10 Minutes): 12.93 ± 0.70 % ID/g | Lungs biological distribution ([2]; 10 Minutes): 5.13 ± 0.06 % ID/g | Heart biological distribution ([2]; 20 Minutes): 3.97 ± 0.50 % ID/g | Kidneys biological distribution ([2]; 20 Minutes): 14.70 ± 1.14 % ID/g | Liver biological distribution ([2]; 20 Minutes): 14.00 ± 1.78 % ID/g | Lungs biological distribution ([2]; 20 Minutes): 4.70 ± 0.20 % ID/g | Heart biological distribution ([2]; 30 Minutes): 4.00 ± 0.30 % ID/g | Kidneys biological distribution ([2]; 30 Minutes): 14.53 ± 1.86 % ID/g | Liver biological distribution ([2]; 30 Minutes): 14.27 ± 1.97 % ID/g | Lungs biological distribution ([2]; 30 Minutes): 4.70 ± 0.26 % ID/g | Heart biological distribution ([2]; 40 Minutes): 3.73 ± 0.51 % ID/g | Kidneys biological distribution ([2]; 40 Minutes): 13.27 ± 1.65 % ID/g | Liver biological distribution ([2]; 40 Minutes): 16.37 ± 2.47 % ID/g | Lungs biological distribution ([2]; 40 Minutes): 4.80 ± 0.72 % ID/g | Heart biological distribution ([2]; 60 Minutes): 3.63 ± 0.49 % ID/g | Kidneys biological distribution ([2]; 60 Minutes): 12.23 ± 1.00 % ID/g | Liver biological distribution ([2]; 60 Minutes): 17.53 ± 2.85 % ID/g | Lungs biological distribution ([2]; 60 Minutes): 4.40 ± 0.44 % ID/g | Heart biological distribution ([2]; 90 Minutes): 3.77 ± 0.64 % ID/g | Kidneys biological distribution ([2]; 90 Minutes): 12.37 ± 1.75 % ID/g | Liver biological distribution ([2]; 90 Minutes): 19.67 ± 3.72 % ID/g | Lungs biological distribution ([2]; 90 Minutes): 4.20 ± 0.26 % ID/g | Heart biological distribution ([2]; 120 Minutes): 3.73 ± 0.58 % ID/g | Kidneys biological distribution ([2]; 120 Minutes): 12.40 ± 3.48 % ID/g | Liver biological distribution ([2]; 120 Minutes): 21.03 ± 2.78 % ID/g | Lungs biological distribution ([2]; 120 Minutes): 4.07 ± 0.15 % ID/g | Radioactivity in the liver compared with [^99mTc(MIBI)6]^+ ([2]; imaging, in words): clearly lower | Liver time-radioactivity curve relative to the myocardial curve ([2]; in words): lower than the myocardial curve | CL (blood clearance) [3]: 401.33 ± 73.51 mL/h | T(α)⅓ of blood clearance curve [3]: 1.33 ± 0.12 min | T(β)½ of blood clearance curve [3]: 102.33 ± 25.58 min
